The source of these data is patent publication US7795290B2 (Genentech, Inc., priority 2004, dated 2010).

Molecules are shown by their SMILES.

One test deals with T1, ZAP70 (Homo sapiens, UniProt P43403).
T1 sequence (P43403 1-619): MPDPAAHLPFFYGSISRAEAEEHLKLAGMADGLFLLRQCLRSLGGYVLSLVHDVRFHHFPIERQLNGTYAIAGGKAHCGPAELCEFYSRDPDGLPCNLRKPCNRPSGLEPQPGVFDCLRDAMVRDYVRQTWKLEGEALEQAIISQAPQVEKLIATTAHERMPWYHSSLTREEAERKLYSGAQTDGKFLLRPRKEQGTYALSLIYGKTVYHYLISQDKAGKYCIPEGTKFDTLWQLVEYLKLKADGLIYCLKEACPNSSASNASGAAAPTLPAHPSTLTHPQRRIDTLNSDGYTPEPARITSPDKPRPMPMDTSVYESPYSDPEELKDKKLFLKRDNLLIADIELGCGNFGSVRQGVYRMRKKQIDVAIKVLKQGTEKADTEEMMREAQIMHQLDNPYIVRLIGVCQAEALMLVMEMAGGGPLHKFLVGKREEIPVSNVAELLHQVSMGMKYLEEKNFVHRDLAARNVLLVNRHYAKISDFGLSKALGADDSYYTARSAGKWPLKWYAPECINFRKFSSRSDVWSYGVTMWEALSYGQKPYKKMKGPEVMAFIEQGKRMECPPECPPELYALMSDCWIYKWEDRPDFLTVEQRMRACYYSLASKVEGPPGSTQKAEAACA
Kind of test: HTS ATP-utilizing enzyme assay, off-chip mobility-shift (Caliper HTS 250). In kind it is biochemical. The following applies: kinase named = inhibitory activity/selectivity; test compound 10 μM; active = greater than three-sigma from mean. From the text: (§1) The following procedures describe the reagent and plate preparation for a HTS of an ATP-utilizing enzyme, such as a protein kinase, run in an off-chip mobility-shift assay format. The following provides an HTS protocol for running a protein kinase HTS screen on a Caliper HTS 250 microfluidics system. The following parameters are dependent on the protein kinase used and can be determined by one skilled in the art as part of a typical assay development process. For example, the peptide substrate used can be identified from the current literature, by screening a peptide library of potential protein kinase substrates, or by other applicable means accepted in the field.
(§2) Assays to determine the kinase inhibitory activity of chemical entities of the present disclosure were performed using a Caliper HTS 250 microfluidics device, Greiner U-bottom assay plates, a Multidrop for transfer of reagents, and Biomek FX (AMNCBM03) software. Initially, 2.4 μL of a 1 mM solution of a test compound in 100% DMSO was added to a well of the Greiner U-bottom plate. A single Greiner U-bottom plate having 24×16 wells could include multiple test compounds. Next, 40 μL of 1.06× Assay Buffer was added to each well of the assay plate. Using the Biomek FX, 10 μL of 0.5 M EDTA was added by the span-8 to wells, indicated as 100% Control and 2.4 μL of 100% DMSO was added by the span-8 to wells, indicated as 0% Control. Using the Multidrop, 10 μL of 2.5× Enzyme Buffer, followed by 10 μL of 2.5× Substrate Buffer was added to each well of the assay plate. The total reaction volume in each well was 25 μL, and the concentration of the test compound was 10 μM. The assay plate was incubated for 2.5 hrs at 20° C. to 22° C. After the incubation period, using the Multidrop, 45 μL of 1.55× Termination Buffer was added to each well of the assay plate to stop the reaction. The inhibition of the ATP-utilizing enzyme, such as a particular protein kinase, was determined by measuring the ratio of the peptide substrate to phosphorylated product for each well of the assay plate using the Caliper HTS 250 system.
(§3) The use of three-sigma statistical limits represents a conservative method for declaring potential hits among targets. The three-sigma activity, as well as the mean population activity, can be different for each target enzyme. This method has an expected false positive rate, from an in-control measurement process, of […].
(§4) Each chemical entity listed in Table 2 was tested for protein kinase inhibitory activity according to the biological assays and definitions of protein kinase inhibitory activity as described herein. For each exemplary compound listed in Table 2, the inhibitory activity for at least one protein kinase according to the biological assays and definitions of protein kinase inhibitory activity as described herein is indicated.
On to `COc1ccc(-c2csc(N(CCCN3CCOCC3)C(=O)c3cccc(Cl)n3)n2)cc1` [6-chloro-N-(4-(4-methoxyphenyl)thiazol-2-yl)-N-(3-morpholinopropyl)picolinamide], for which the Activity entry is recorded as “ZAP70”.
Take `COc1ccc(-c2csc(N(CCCN3CCOCC3)C(=O)c3ccc(C(C)=O)s3)n2)cc1` [5-acetyl-N-(4-(4-methoxyphenyl)thiazol-2-yl)-N-(3-morpholinopropyl)thiophene-2-carboxamide]: the Activity result is on record as “ZAP70”.
Same read-out and setting: next, `COc1ccc(-c2csc(N(CCCN3CCOCC3)C(=O)c3ccc(Br)s3)n2)cc1` [5-bromo-N-(4-(4-methoxyphenyl)thiazol-2-yl)-N-(3-morpholinopropyl)thiophene-2-carboxamide]: “ZAP70”; `COc1ccc(-c2csc(N(CCCN3CCOCC3)C(=O)c3sccc3Br)n2)cc1` [3-bromo-N-(4-(4-methoxyphenyl)thiazol-2-yl)-N-(3-morpholinopropyl)thiophene-2-carboxamide]: “ZAP70”.
Take `COc1ccc(-c2csc(N(CCCN3CCOCC3)C(=O)c3ccccc3C#N)n2)cc1` [2-cyano-N-(4-(4-methoxyphenyl)thiazol-2-yl)-N-(3-morpholinopropyl)benzamide]: the Activity result is reported as “ZAP70”.
With `COc1ccc(-c2csc(N(CCCN3CCOCC3)C(=O)c3nsc(Cl)c3Cl)n2)cc1` [4,5-dichloro-N-(4-(4-methoxyphenyl)thiazol-2-yl)-N-(3-morpholinopropyl)isothiazole-3-carboxamide], the Activity result is reported as “ZAP70”.

For a further test, the target named is T2, DYRK2 (Homo sapiens, UniProt Q92630).
T2 sequence (Q92630 1-601): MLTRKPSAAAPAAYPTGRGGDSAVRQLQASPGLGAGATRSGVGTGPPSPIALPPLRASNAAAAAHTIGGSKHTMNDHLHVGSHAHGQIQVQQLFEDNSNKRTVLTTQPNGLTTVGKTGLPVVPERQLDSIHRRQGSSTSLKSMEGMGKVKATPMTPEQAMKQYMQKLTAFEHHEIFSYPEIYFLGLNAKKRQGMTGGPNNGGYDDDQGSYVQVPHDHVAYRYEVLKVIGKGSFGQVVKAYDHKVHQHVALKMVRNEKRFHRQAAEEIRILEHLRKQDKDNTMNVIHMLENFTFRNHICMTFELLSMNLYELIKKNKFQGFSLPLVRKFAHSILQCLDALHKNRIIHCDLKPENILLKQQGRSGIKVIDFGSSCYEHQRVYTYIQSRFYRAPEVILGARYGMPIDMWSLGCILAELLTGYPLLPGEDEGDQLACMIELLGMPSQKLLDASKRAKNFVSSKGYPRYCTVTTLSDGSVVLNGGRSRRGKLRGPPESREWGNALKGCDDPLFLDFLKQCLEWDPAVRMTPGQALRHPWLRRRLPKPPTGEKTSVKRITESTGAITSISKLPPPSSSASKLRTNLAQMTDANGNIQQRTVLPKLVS
Described as above. In kind it is biochemical. The settings on record: kinase named = inhibitory activity/selectivity; test compound 10 μM; active = greater than three-sigma from mean.
Text: as §1, §2, §3, §4
Regarding `CCN(C(=O)CCC(=O)O)c1nc(-c2ccc(OC)cc2)cs1` [4-(ethyl(4-(4-methoxyphenyl)thiazol-2-yl)amino)-4-oxobutanoic acid], the Activity result is given as “DYRK2”.
Take `COc1ccc(-c2csc(N(CCCN3CCOCC3)C(=O)CC(C)(C)C)n2)cc1` [N-(4-(4-methoxyphenyl)thiazol-2-yl)-3,3-dimethyl-N-(3-morpholinopropyl)butanamide]: the Activity entry is reported as “DYRK2”.
Still for that read-out and setting: to `COc1ccc(-c2csc(N(CCCN3CCOCC3)C(=O)c3ccco3)n2)cc1` [N-(4-(4-methoxyphenyl)thiazol-2-yl)-N-(3-morpholinopropyl)furan-2-carboxamide] belongs “DYRK2”; to `COc1ccc(-c2csc(N(CCCN3CCOCC3)C(C)=O)n2)cc1` [N-(4-(4-methoxyphenyl)thiazol-2-yl)-N-(3-morpholinopropyl)acetamide], “DYRK2”; to `COc1ccc(-c2csc(N(C)C(C)=O)n2)cc1` [N-(4-(4-methoxyphenyl)thiazol-2-yl)-N-methylacetamide], “DYRK2”.
Take `COc1ccc(-c2csc(N(CCc3ccccc3)C(=O)CCC(=O)O)n2)cc1` [4-((4-(4-methoxyphenyl)thiazol-2-yl)(phenethyl)amino)-4-oxobutanoic acid]: the Activity result is listed as “DYRK2”.
Consider `COCCN(C(=O)CCC(=O)O)c1nc(-c2ccc(OC)cc2)cs1` [4-((2-methoxyethyl)(4-(4-methoxyphenyl)thiazol-2-yl)amino)-4-oxobutanoic acid], for which the Activity entry is reported as “DYRK2”.
For `COc1ccc(-c2csc(N(CC3CCCO3)C(=O)CCC(=O)O)n2)cc1` (centres unmarked) [4-((4-(4-methoxyphenyl)thiazol-2-yl)((tetrahydrofuran-2-yl)methyl)amino)-4-oxobutanoic acid], the Activity entry is reported as “DYRK2”.
`COc1ccc(-c2csc(N(Cc3ccccc3)C(=O)CCC(=O)O)n2)cc1` [4-(benzyl(4-(4-methoxyphenyl)thiazol-2-yl)amino)-4-oxobutanoic acid]: the Activity entry is listed as “DYRK2”.
Take `COc1ccc(-c2csc(N(C)C(=O)CCC(=O)O)n2)cc1` [4-((4-(4-methoxyphenyl)thiazol-2-yl)(methyl)amino)-4-oxobutanoic acid]: the Activity result is on record as “DYRK2”.
Consider `CCC(=O)N(CC1CCCO1)c1nc(-c2ccc(OC)cc2)cs1` (centres unmarked) [N-(4-(4-methoxyphenyl)thiazol-2-yl)-N-((tetrahydrofuran-2-yl)methyl)propionamide], for which the Activity entry is given as “DYRK2”.
As to `CCN(CC)CCCN(C(=O)COc1ccc(C)cc1)c1nc(-c2ccc(OC)cc2)cs1` [N-(3-(diethylamino)propyl)-N-(4-(4-methoxyphenyl)thiazol-2-yl)-2-(p-tolyloxy)acetamide], the Activity entry is “DYRK2”.
Still for that read-out and setting: to `COCCCN(C(=O)CCC(=O)O)c1nc(-c2ccc(OC)cc2)cs1` [4-((4-(4-methoxyphenyl)thiazol-2-yl)(3-methoxypropyl)amino)-4-oxobutanoic acid] belongs “DYRK2”; to `COc1ccc(-c2csc(N(Cc3ccco3)C(=O)CCC(=O)O)n2)cc1` [4-((furan-2-ylmethyl)(4-(4-methoxyphenyl)thiazol-2-yl)amino)-4-oxobutanoic acid], “DYRK2”.
Regarding `CCC(=O)N(CC)c1nc(-c2ccc(OC)cc2)cs1` [N-ethyl-N-(4-(4-methoxyphenyl)thiazol-2-yl)propionamide], the Activity result is “DYRK2”.
In the case of `CCC(=O)N(CCCOC)c1nc(-c2ccc(OC)cc2)cs1` [N-(4-(4-methoxyphenyl)thiazol-2-yl)-N-(3-methoxypropyl)propionamide], the Activity entry is “DYRK2”.
Turning to `COc1ccc(-c2csc(N(CCc3ccc(OC)c(OC)c3)C(=O)CCC(=O)O)n2)cc1` [4-((3,4-dimethoxyphenethyl)(4-(4-methoxyphenyl)thiazol-2-yl)amino)-4-oxobutanoic acid], the Activity result is “DYRK2”.
The same measure, in the same setting: next, `COc1ccc(-c2csc(N(CCCN3CCOCC3)C(=O)Cc3cccc(Cl)c3)n2)cc1` [2-(3-chlorophenyl)-N-(4-(4-methoxyphenyl)thiazol-2-yl)-N-(3-morpholinopropyl)acetamide]: “DYRK2”; `COCCN(C(C)=O)c1nc(-c2ccc(OC)cc2)cs1` [N-(2-methoxyethyl)-N-(4-(4-methoxyphenyl)thiazol-2-yl)acetamide]: “DYRK2”.

A further test deals with T3, AKT1 (Homo sapiens, UniProt P31749).
T3 construct: purchased Upstate 14-276
T3 sequence (P31749 whole entry): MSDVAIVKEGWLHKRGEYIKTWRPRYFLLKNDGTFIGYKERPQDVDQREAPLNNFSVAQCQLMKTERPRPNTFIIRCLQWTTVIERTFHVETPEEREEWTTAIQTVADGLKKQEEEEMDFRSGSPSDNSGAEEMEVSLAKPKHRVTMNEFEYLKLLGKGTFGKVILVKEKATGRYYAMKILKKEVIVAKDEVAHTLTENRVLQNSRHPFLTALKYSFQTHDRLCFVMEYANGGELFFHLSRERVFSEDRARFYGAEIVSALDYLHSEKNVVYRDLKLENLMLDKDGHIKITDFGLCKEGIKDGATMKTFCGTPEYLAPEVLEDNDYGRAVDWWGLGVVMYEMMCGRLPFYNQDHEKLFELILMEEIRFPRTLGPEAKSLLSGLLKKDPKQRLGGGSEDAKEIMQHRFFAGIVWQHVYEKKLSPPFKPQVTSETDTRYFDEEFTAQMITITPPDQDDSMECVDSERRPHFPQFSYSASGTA
The description is as above. It counts as biochemical. The following applies: kinase named = inhibitory activity/selectivity; test compound 10 μM; active = greater than three-sigma from mean. In short, it runs like this: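 AKT1 activity was measured by off-chip mobility shift (Caliper HTS 250) as the ratio of peptide substrate to phosphorylated product. Test compound was at 10 μM, with 2.5 h incubation at 20–22° C. EDTA wells served as 100% control and DMSO wells as 0%. Hits were called at three-sigma limits.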
For `COc1ccc(-c2csc(N(CCCN3CCOCC3)C(=O)c3cccc(Cl)n3)n2)cc1` [6-chloro-N-(4-(4-methoxyphenyl)thiazol-2-yl)-N-(3-morpholinopropyl)picolinamide], the Activity result is on record as “AKT1”.
The same measure, in the same setting: next, `COc1ccc(-c2csc(N(CCCN3CCOCC3)C(=O)c3ccco3)n2)cc1` [N-(4-(4-methoxyphenyl)thiazol-2-yl)-N-(3-morpholinopropyl)furan-2-carboxamide]: “AKT1”; `COc1ccc(-c2csc(N(CCCN3CCOCC3)C(=O)c3ccc(Br)s3)n2)cc1` [5-bromo-N-(4-(4-methoxyphenyl)thiazol-2-yl)-N-(3-morpholinopropyl)thiophene-2-carboxamide]: “AKT1”; `COc1ccc(-c2csc(N(CCCN3CCOCC3)C(=O)c3sccc3Br)n2)cc1` [3-bromo-N-(4-(4-methoxyphenyl)thiazol-2-yl)-N-(3-morpholinopropyl)thiophene-2-carboxamide]: “AKT1”.
